pEC50, pIC50: −log10 of the molar value. Read-outs that look alike come from different tables or passages of the source.
Columns and labels:
CCD 841 CoN = test: OncoPanel normal cell proliferation assay (3-day); type: cell-based; details: Homo sapiens, 72 h, colon epithelial, 3-day incubation
COX1 (h) = COX1 (h) (Homo sapiens, UniProt P23219); test: Bioprint enzyme assay; type: biochemical
[1] = tested on: Toll-like receptor 4 (TLR4) activation on human peripheral blood mononuclear cells (PBMC's); test: TLR4 inhibition assay, LPS-induced cytokine release; type: cell-based; details: for pIC50: Homo sapiens, PBMC, 24 h, 24-hour LPS stimulation
enzymes (Bioprint panel) [2] = target: enzymes (Bioprint panel) (Homo sapiens, UniProt P08253); test: biochemical; details: MMP-2 (h); 10 μM; read-out: % Inhibition of Control Values
enzymes (Bioprint panel) [3] = target: enzymes (Bioprint panel) (Homo sapiens, UniProt P14780); test: biochemical; details: MMP-9 (h); 10 μM; read-out: % Inhibition of Control Values
enzymes (Bioprint panel) [4] = target: enzymes (Bioprint panel) (Homo sapiens, UniProt P06241); test: biochemical; details: Fyn kinase (h); 10 μM; read-out: % Inhibition of Control Values
enzymes (Bioprint panel) [5] = target: enzymes (Bioprint panel) (Homo sapiens, UniProt P03956); test: biochemical; details: MMP-1 (h); 10 μM; read-out: % Inhibition of Control Values
enzymes (Bioprint panel) [6] = tested on: T1, enzymes (Bioprint panel); test: biochemical; details: ATPase (Na+/K+); 10 μM
T1 construct: other: ATPase (Na+/K+); 10 μM

enzymes (Bioprint panel) [7] = target: enzymes (Bioprint panel) (Mus musculus, UniProt P29477); test: biochemical; details: inducible NOS; 10 μM; read-out: % Inhibition of Control Values
enzymes (Bioprint panel) [8] = target: enzymes (Bioprint panel) (Bos taurus, UniProt P80457); test: biochemical; details: xanthine oxidase/superoxide O2- scavenging; 10 μM; read-out: % Inhibition of Control Values
enzymes (Bioprint panel) [9] = target: enzymes (Bioprint panel) (Homo sapiens, UniProt Q9UQM7); test: biochemical; details: CaMK2alpha (h); 10 μM; read-out: % Inhibition of Control Values
enzymes (Bioprint panel) [10] = test: biochemical; details: COMT (catechol- O-methyl transferase); 10 μM
enzymes (Bioprint panel) [11] = target: T2, enzymes (Bioprint panel) (Bos taurus, UniProt P11541+P23439); test: biochemical; details: PDE6 (non-selective); 10 μM; read-out: % Inhibition of Control Values
T2 construct: other: PDE6 (non-selective); 10 μM

enzymes (Bioprint panel) [12] = target: enzymes (Bioprint panel) (Homo sapiens, UniProt Q13370); test: biochemical; details: PDE3B (h); 10 μM; read-out: % Inhibition of Control Values
enzymes (Bioprint panel) [13] = target: enzymes (Bioprint panel) (Homo sapiens, UniProt P43403); test: biochemical; details: ZAP70 kinase (h); 10 μM; read-out: % Inhibition of Control Values
enzymes (Bioprint panel) [14] = target: T3, enzymes (Bioprint panel) (UniProt P04585); test: biochemical; details: HIV-1 protease; 10 μM
T3 construct: other: HIV-1 protease; 10 μM

enzymes (Bioprint panel) [15] = target: T4, enzymes (Bioprint panel) (Homo sapiens, UniProt Q08499); test: biochemical; details: PDE4D2 (h); 10 μM; read-out: % Inhibition of Control Values
T4 construct: other: PDE4D2 (h); 10 μM; PDE4D2 (h)

enzymes (Bioprint panel) [16] = target: T5, enzymes (Bioprint panel) (Homo sapiens, UniProt O00408); test: biochemical; details: PDE2A1 (h); 10 μM; read-out: % Inhibition of Control Values
T5 construct: other: PDE2A1 (h); 10 μM; PDE2A1 (h)

COX2 (h) = COX2 (h) (Homo sapiens, UniProt P35354); test: Bioprint enzyme assay; type: biochemical
[17] = tested on: IL-4 secretion from human CD4-positive T-cells stimulated with antiCD2/antiCD3/antiCD28-coated beads; test: T-cell IL-4 assay; type: cell-based
[18] = tested on: human CD4-positive T-cells; test: T-cell viability/proliferation (assay number 1299); type: cell-based
ASH1L = ASH1L (Homo sapiens, UniProt Q9NR48); details: read-out: Reference: IC50; cited from earlier work
DNMT3b = DNMT3b (Homo sapiens, UniProt Q9UBC3); details: read-out: Reference IC50; cited from earlier work
SETDB1 (h) = SETDB1 (h) (Homo sapiens, UniProt Q15047); details: read-out: Reference: (IC50 not given); cited from earlier work
PRDM9 (h) = PRDM9 (h) (Homo sapiens, UniProt Q9NQV7); details: read-out: Reference: (IC50 not given); cited from earlier work
SUV39H2 (h) = SUV39H2 (h) (Homo sapiens, UniProt Q9H5I1); details: read-out: Reference: (IC50 not given); cited from earlier work
[19] = read-out: % inhibition of control enzyme activity

Chain of COX1 (h) (P23219 24-599): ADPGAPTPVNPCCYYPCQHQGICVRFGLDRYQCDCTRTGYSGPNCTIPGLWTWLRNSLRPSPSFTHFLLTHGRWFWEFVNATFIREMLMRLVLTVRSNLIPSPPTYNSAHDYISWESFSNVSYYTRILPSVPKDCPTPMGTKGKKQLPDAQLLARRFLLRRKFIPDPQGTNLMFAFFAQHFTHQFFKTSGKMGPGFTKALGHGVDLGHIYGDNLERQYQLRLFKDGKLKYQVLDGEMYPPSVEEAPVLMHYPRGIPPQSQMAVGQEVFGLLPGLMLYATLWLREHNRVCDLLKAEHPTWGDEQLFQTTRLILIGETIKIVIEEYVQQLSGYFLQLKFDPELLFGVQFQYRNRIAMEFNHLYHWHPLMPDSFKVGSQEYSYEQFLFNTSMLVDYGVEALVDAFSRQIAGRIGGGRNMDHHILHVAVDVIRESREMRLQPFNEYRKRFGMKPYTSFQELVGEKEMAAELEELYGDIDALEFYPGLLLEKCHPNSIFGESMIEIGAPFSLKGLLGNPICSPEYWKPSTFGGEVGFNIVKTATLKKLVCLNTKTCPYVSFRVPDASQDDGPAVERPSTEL
Chain of COX2 (h) (P35354 18-604): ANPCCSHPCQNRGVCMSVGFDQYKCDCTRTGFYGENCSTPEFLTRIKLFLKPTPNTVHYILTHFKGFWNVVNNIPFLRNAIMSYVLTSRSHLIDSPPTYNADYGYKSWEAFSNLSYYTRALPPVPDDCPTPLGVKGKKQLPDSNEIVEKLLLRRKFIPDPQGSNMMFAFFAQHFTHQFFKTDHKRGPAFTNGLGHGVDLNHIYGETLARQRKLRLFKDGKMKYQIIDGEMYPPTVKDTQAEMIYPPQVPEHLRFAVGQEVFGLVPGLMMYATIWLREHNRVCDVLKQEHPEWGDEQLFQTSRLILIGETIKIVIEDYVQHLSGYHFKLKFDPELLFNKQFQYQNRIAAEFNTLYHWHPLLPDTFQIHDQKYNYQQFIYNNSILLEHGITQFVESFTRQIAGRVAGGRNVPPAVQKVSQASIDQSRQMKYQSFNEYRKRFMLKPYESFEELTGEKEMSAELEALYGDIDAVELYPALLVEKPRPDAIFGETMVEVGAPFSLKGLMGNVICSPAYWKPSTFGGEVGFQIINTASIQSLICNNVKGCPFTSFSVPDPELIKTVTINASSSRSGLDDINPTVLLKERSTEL
Chain of enzymes (Bioprint panel) (Homo sapiens, UniProt Q9UQM7) (Q9UQM7 whole entry): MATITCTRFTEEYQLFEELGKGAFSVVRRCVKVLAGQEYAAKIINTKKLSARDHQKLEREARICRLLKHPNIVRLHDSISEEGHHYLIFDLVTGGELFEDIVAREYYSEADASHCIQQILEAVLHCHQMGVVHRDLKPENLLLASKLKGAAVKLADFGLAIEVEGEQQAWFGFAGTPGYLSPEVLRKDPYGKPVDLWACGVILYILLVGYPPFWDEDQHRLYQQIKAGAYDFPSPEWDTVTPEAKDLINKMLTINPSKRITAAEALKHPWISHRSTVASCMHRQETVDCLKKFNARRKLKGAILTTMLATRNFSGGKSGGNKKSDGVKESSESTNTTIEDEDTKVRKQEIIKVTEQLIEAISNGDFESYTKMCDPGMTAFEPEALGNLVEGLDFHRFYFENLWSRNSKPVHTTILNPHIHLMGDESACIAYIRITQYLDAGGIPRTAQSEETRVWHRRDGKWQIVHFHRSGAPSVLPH
Chain of enzymes (Bioprint panel) (Homo sapiens, UniProt P03956) (P03956 100-469): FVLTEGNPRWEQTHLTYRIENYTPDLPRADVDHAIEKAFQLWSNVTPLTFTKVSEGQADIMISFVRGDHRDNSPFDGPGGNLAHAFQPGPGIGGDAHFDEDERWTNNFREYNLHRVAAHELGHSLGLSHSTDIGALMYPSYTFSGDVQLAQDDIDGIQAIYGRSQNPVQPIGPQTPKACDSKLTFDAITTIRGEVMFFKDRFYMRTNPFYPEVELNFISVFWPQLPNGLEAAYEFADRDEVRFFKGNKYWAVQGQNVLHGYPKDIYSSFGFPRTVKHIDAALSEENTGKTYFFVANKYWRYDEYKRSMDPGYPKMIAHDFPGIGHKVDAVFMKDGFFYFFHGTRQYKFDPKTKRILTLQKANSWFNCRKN
Chain of enzymes (Bioprint panel) (Mus musculus, UniProt P29477) (P29477 whole entry): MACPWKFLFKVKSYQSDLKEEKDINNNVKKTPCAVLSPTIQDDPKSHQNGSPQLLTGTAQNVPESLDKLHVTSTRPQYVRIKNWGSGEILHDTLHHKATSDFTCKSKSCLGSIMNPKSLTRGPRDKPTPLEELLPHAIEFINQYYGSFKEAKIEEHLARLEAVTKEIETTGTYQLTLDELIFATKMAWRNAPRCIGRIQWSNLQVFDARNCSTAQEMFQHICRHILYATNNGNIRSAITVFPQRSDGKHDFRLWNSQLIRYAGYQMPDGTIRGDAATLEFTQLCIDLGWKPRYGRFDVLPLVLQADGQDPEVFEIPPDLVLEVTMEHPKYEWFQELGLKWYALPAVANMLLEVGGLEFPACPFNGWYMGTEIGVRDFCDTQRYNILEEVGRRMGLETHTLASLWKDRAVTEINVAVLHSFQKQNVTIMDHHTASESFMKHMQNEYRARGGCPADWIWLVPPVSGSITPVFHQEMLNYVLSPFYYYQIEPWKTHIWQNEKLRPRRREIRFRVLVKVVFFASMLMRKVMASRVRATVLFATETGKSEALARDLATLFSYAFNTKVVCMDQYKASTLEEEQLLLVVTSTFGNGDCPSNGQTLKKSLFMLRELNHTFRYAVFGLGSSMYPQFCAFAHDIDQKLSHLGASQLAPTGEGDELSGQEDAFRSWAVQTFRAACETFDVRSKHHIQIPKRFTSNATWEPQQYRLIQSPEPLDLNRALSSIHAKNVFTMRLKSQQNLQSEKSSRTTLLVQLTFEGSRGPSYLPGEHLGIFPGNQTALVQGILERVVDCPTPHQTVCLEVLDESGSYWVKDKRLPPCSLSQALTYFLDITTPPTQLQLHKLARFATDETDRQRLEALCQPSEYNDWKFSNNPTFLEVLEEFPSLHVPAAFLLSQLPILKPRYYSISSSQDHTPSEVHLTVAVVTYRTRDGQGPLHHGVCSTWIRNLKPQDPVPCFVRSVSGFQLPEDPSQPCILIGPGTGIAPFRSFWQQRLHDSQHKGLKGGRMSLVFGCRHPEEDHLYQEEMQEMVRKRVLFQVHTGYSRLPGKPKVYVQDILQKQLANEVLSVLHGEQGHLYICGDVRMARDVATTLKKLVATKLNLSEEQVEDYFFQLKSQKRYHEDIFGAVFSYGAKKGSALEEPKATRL
T4 sequence (Q08499 303-809): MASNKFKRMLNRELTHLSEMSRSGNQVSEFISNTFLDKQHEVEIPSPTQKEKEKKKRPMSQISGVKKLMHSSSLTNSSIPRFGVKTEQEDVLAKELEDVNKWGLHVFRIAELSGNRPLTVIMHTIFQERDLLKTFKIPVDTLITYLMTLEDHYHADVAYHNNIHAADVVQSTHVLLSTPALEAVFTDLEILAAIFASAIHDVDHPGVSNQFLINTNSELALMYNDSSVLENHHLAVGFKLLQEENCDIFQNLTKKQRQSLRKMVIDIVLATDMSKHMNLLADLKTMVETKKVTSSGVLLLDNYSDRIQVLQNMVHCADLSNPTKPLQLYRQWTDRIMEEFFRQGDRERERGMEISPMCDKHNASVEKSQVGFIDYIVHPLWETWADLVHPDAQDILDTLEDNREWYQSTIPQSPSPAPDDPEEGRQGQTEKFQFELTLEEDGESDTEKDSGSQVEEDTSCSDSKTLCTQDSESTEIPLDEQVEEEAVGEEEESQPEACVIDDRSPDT
Chain of enzymes (Bioprint panel) (Homo sapiens, UniProt P14780) (P14780 94-707): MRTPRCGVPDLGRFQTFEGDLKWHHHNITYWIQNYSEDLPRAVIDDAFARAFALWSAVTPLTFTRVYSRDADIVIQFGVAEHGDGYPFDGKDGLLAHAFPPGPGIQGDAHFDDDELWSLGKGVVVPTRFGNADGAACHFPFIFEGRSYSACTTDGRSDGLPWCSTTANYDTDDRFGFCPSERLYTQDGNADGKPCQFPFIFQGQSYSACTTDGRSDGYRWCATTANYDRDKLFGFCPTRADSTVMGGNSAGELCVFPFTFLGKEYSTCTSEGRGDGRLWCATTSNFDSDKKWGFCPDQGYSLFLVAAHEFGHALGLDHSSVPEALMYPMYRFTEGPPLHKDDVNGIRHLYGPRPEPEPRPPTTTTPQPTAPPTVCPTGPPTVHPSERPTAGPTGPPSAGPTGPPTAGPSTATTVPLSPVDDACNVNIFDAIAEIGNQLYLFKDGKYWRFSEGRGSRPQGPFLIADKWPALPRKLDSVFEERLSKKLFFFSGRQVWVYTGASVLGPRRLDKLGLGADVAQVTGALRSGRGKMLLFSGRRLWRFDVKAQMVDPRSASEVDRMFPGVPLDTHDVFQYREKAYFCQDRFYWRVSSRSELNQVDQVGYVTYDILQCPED
Chain of SUV39H2 (h) (Q9H5I1 whole entry): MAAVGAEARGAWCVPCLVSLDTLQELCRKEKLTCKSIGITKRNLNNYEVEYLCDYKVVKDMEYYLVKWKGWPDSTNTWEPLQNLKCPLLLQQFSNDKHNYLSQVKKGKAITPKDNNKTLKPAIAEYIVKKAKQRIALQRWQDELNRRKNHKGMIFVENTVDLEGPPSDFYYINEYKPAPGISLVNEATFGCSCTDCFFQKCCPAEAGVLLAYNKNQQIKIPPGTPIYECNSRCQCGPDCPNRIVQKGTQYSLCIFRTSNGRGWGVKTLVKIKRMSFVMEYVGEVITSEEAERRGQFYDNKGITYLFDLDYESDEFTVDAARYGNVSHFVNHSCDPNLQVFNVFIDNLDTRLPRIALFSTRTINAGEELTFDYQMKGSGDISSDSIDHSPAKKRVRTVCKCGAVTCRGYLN

`CC(C)=CCC[C@H](CO)[C@@H]1CC[C@@H](C)c2c1cc(C)c(O)c2O` [Compound 1, 7,8,18-trihydroxyserrulat-14-ene] showed a pEC50 (CCD 841 CoN; read-out: Cell Count EC50) of 5.31, a GI50 (CCD 841 CoN; read-out: Cell Count GI50) of 5.27 µM and a pIC50 (CCD 841 CoN; read-out: Cell Count IC50) of 4.84. The inhibition at 10 µM (COX1 (h); COX1(h), read-out: % Inhibition of Control Values) was 81%, the inhibition at 10 µM (COX1 (h); [19]) was 81% and the pIC50 ([1]; read-out: IC50, LPS-induced IL-1β release) was 5.18. For the same molecule, the pIC50 ([1]; read-out: IC50, LPS-induced IL-6 release) was 5.06, the pIC50 ([1]; read-out: IC50, LPS-induced IL-10 release) was 5.37 and the pIC50 ([1]; read-out: IC50, LPS-induced TNFα release) was 5.05. The pIC50 ([1]; I-1β, human PBMC, read-out: LPS-induced cytokine IC50) was 5.18, the pIC50 ([1]; IL-6, human PBMC, read-out: LPS-induced cytokine IC50) was 5.06 and the pIC50 ([1]; IL-10, human PBMC, read-out: LPS-induced cytokine IC50) was 5.37. The pIC50 ([1]; TNF-α, human PBMC, read-out: LPS-induced cytokine IC50) was 5.05, the “inhibition of the secretion of all cytokines” value ([1]; top test concentration) was “moderate to strong inhibition” and the inhibition at 10 µM (enzymes (Bioprint panel) [2]) was 0%. For the same molecule, the inhibition at 10 µM (enzymes (Bioprint panel) [3]) was 1%, the inhibition at 10 µM (enzymes (Bioprint panel) [4]) was 6% and the inhibition at 10 µM (enzymes (Bioprint panel) [5]) was -2%. The “% Inhibition of Control Values” (enzymes (Bioprint panel) [6]) was 22%, the inhibition at 10 µM (enzymes (Bioprint panel) [7]) was -1% and the inhibition at 10 µM (enzymes (Bioprint panel) [8]) was -140%. The inhibition at 10 µM (enzymes (Bioprint panel) [9]) was 2%, the “% Inhibition of Control Values” (enzymes (Bioprint panel) [10]) was −6% and the inhibition at 10 µM (enzymes (Bioprint panel) [11]) was 4%. The inhibition at 10 µM (enzymes (Bioprint panel) [12]) was -3%, the inhibition at 10 µM (enzymes (Bioprint panel) [13]) was 33% and the “% Inhibition of Control Values” (enzymes (Bioprint panel) [14]) was 9%. The inhibition at 10 µM (enzymes (Bioprint panel) [15]) was 55%, the inhibition at 10 µM (enzymes (Bioprint panel) [16]) was 43% and the inhibition at 10 µM (COX2 (h); COX2(h), read-out: % Inhibition of Control Values) was 74%. The inhibition at 10 µM (COX2 (h); [19]) was 74%, the Emax ([17]; read-out: Inhibition of IL-4 release, Max Effect) was 100% and the pEC50 ([17]; read-out: Inhibition of IL-4 release, Rel EC50) was 6.28. The Emax ([18]; read-out: Inhibition of cell proliferation, Max Effect) was 123% and the pEC50 ([18]; read-out: Inhibition of cell proliferation, Rel EC50) was 6.23.

For `Nc1ncnc2c1ncn2[C@@H]1O[C@H](CSCC[C@H](N)C(=O)O)[C@@H](O)[C@H]1O` [SAH], the pIC50 (ASH1L) is listed as 5.04, the pIC50 (DNMT3b) is listed as 7.03 and the pIC50 (SETDB1 (h)) is listed as 5.74. The pIC50 (PRDM9 (h)) was 3.43 and the pIC50 (SUV39H2 (h)) was 4.62.

Reference: US11331299B2, “Medicinal use of serrulatane diterpenes” (The University of Sydney, priority 2016, dated 2022)
